Key:
[1] = test system: brain; test: Matured TTM-001 and TTM-002 variants, NGS enrichment in mouse brain; format: in vivo, mice; details: relative to AAV9 control
[2] = test system: brains, heart, liver, muscle, and DRG of the NHPs; test: Maturation of TTM-001 and TTM-002 capsids, NGS enrichment in NHP tissues; format: in vivo; details: relative to AAV9 control
Outline: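 Variants carry mutations within and flanking the loop IV peptide insert: positions 450–466 were triplet-randomized, while positions 449–466 received low-frequency point mutations. The combined pool went into two NHPs, and each peptide was scored by NGS enrichment ratio against AAV9.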

[3] = NGS fold-enrichment, brain of mice
[4] = NGS fold-enrichment, DRG of NHPs
[5] = NGS fold-enrichment, RNA, brain of NHPs
[6] = NGS fold-enrichment, heart of NHPs
[7] = NGS fold-enrichment, liver DNA of NHPs
[8] = NGS fold-enrichment, liver RNA of NHPs
[9] = NGS fold-enrichment, muscle of NHPs
[10] = NGS fold-enrichment of matured AAV capsid variants, NHP brain, RNA
[11] = NGS fold-enrichment, mouse brain
[12] = NGS fold-enrichment of RNA, NHP brain
[13] = NGS fold-enrichment, NHP liver DNA
[14] = NGS fold-enrichment, NHP liver RNA
[15] = NGS fold-enrichment, NHP muscle

KTEARSGSPHSKAQNQQT
Fold Enrichment relative to AAV9, Brain (Mouse) [1, 3]: 62.903 fold | Fold Enrichment relative to AAV9, DRG (NHP) [2, 4]: 0.000 fold | Fold Enrichment relative to AAV9, Brain (NHP) [2, 5]: 73.349 fold | Fold Enrichment relative to AAV9, Heart (NHP) [2, 6]: 0.000 fold | Fold Enrichment relative to AAV9, Liver DNA (NHP) [2, 7]: 0.118 fold | Fold Enrichment relative to AAV9, Liver RNA (NHP) [2, 8]: 0.695 fold | Fold Enrichment relative to AAV9, Muscle (NHP) [2, 9]: 0.000 fold

KTEDKSGSPHSKAQNQQT
Fold Enrichment relative to AAV9, Brain (Mouse) [1, 3]: 70.071 fold | Fold Enrichment relative to AAV9, DRG (NHP) [2, 4]: 0.000 fold | Fold Enrichment relative to AAV9, Brain (NHP) [2, 5]: 68.813 fold | Fold Enrichment relative to AAV9, Heart (NHP) [2, 6]: 0.000 fold | Fold Enrichment relative to AAV9, Liver DNA (NHP) [2, 7]: 0.000 fold | Fold Enrichment relative to AAV9, Liver RNA (NHP) [2, 8]: 0.000 fold | Fold Enrichment relative to AAV9, Muscle (NHP) [2, 9]: 0.000 fold

KTEDLSGSPHSKAQNQQT
Fold Enrichment relative to AAV9, Brain (Mouse) ([1]; mouse brain): 70.198 fold | Fold Enrichment relative to AAV9, Brain (NHP) [2, 10]: 54.156 fold | Fold Enrichment relative to AAV9, DRG (NHP) ([2]; NHP DRG): 0.000 fold | Fold Enrichment relative to AAV9, Heart (NHP) ([2]; NHP heart): 0.000 fold | Fold Enrichment relative to AAV9, Liver DNA (NHP) ([2]; NHP liver, DNA): 0.132 fold | Fold Enrichment relative to AAV9, Liver RNA (NHP) ([2]; NHP liver, RNA): 1.193 fold | Fold Enrichment relative to AAV9, Muscle (NHP) ([2]; NHP muscle): 0.000 fold

KTEDRSGSPHSKAQNQQT
Fold Enrichment relative to AAV9, Brain (Mouse) [1, 3]: 66.887 fold | Fold Enrichment relative to AAV9, DRG (NHP) [2, 4]: 0.000 fold | Fold Enrichment relative to AAV9, Brain (NHP) [2, 5]: 61.756 fold | Fold Enrichment relative to AAV9, Heart (NHP) [2, 6]: 0.000 fold | Fold Enrichment relative to AAV9, Liver DNA (NHP) [2, 7]: 0.408 fold | Fold Enrichment relative to AAV9, Liver RNA (NHP) [2, 8]: 1.004 fold | Fold Enrichment relative to AAV9, Muscle (NHP) [2, 9]: 0.000 fold

KTEFGHDSPHKSGQNQQT
Fold Enrichment relative to AAV9, Brain (Mouse) [1, 11]: 16.337 fold | Fold Enrichment relative to AAV9, Brain (NHP) [2, 12]: 77.245 fold | Fold Enrichment relative to AAV9, DRG (NHP) ([2]; NGS fold-enrichment, NHP DRG): 0.000 fold | Fold Enrichment relative to AAV9, Heart (NHP) ([2]; NGS fold-enrichment, NHP heart): 0.124 fold | Fold Enrichment relative to AAV9, Liver DNA (NHP) [2, 13]: 0.063 fold | Fold Enrichment relative to AAV9, Liver RNA (NHP) [2, 14]: 0.561 fold | Fold Enrichment relative to AAV9, Muscle (NHP) [2, 15]: 0.000 fold

KTEFVSGSPHSKAQNQQT
Fold Enrichment relative to AAV9, Brain (Mouse) [1, 3]: 69.788 fold | Fold Enrichment relative to AAV9, DRG (NHP) [2, 4]: 0.000 fold | Fold Enrichment relative to AAV9, Brain (NHP) [2, 5]: 59.306 fold | Fold Enrichment relative to AAV9, Heart (NHP) [2, 6]: 0.000 fold | Fold Enrichment relative to AAV9, Liver DNA (NHP) [2, 7]: 0.276 fold | Fold Enrichment relative to AAV9, Liver RNA (NHP) [2, 8]: 0.196 fold | Fold Enrichment relative to AAV9, Muscle (NHP) [2, 9]: 0.000 fold

KTEGISGSPHSKAQNQQT
Fold Enrichment relative to AAV9, Brain (Mouse) ([1]; mouse brain): 78.303 fold | Fold Enrichment relative to AAV9, Brain (NHP) [2, 10]: 53.270 fold | Fold Enrichment relative to AAV9, DRG (NHP) ([2]; NHP DRG): 0.000 fold | Fold Enrichment relative to AAV9, Heart (NHP) ([2]; NHP heart): 0.000 fold | Fold Enrichment relative to AAV9, Liver DNA (NHP) ([2]; NHP liver, DNA): 0.010 fold | Fold Enrichment relative to AAV9, Liver RNA (NHP) ([2]; NHP liver, RNA): 0.000 fold | Fold Enrichment relative to AAV9, Muscle (NHP) ([2]; NHP muscle): 0.000 fold

KTEGKHDSPHKSGQNQQT
Fold Enrichment relative to AAV9, Brain (Mouse) [1, 11]: 10.345 fold | Fold Enrichment relative to AAV9, Brain (NHP) [2, 12]: 98.384 fold | Fold Enrichment relative to AAV9, DRG (NHP) ([2]; NGS fold-enrichment, NHP DRG): 0.000 fold | Fold Enrichment relative to AAV9, Heart (NHP) ([2]; NGS fold-enrichment, NHP heart): 0.056 fold | Fold Enrichment relative to AAV9, Liver DNA (NHP) [2, 13]: 0.000 fold | Fold Enrichment relative to AAV9, Liver RNA (NHP) [2, 14]: 0.000 fold | Fold Enrichment relative to AAV9, Muscle (NHP) [2, 15]: 0.000 fold

KTEGLSGSPHSKAQNQQT
Fold Enrichment relative to AAV9, Brain (Mouse) ([1]; mouse brain): 104.529 fold | Fold Enrichment relative to AAV9, Brain (NHP) [2, 10]: 52.891 fold | Fold Enrichment relative to AAV9, DRG (NHP) ([2]; NHP DRG): 0.000 fold | Fold Enrichment relative to AAV9, Heart (NHP) ([2]; NHP heart): 0.000 fold | Fold Enrichment relative to AAV9, Liver DNA (NHP) ([2]; NHP liver, DNA): 0.155 fold | Fold Enrichment relative to AAV9, Liver RNA (NHP) ([2]; NHP liver, RNA): 0.104 fold | Fold Enrichment relative to AAV9, Muscle (NHP) ([2]; NHP muscle): 0.020 fold

KTEHLSGSPHSKAQNQQT
Fold Enrichment relative to AAV9, Brain (Mouse) [1, 3]: 69.494 fold | Fold Enrichment relative to AAV9, Brain (Mouse) [1, 11]: 69.494 fold | Fold Enrichment relative to AAV9, Brain (NHP) [2, 12]: 83.080 fold | Fold Enrichment relative to AAV9, DRG (NHP) [2, 4]: 0.000 fold | Fold Enrichment relative to AAV9, DRG (NHP) ([2]; NGS fold-enrichment, NHP DRG): 0.000 fold | Fold Enrichment relative to AAV9, Heart (NHP) ([2]; NGS fold-enrichment, NHP heart): 0.000 fold | Fold Enrichment relative to AAV9, Liver DNA (NHP) [2, 13]: 0.189 fold | Fold Enrichment relative to AAV9, Liver RNA (NHP) [2, 14]: 0.021 fold | Fold Enrichment relative to AAV9, Muscle (NHP) [2, 15]: 0.012 fold | Fold Enrichment relative to AAV9, Brain (NHP) [2, 5]: 83.080 fold | Fold Enrichment relative to AAV9, Heart (NHP) [2, 6]: 0.000 fold | Fold Enrichment relative to AAV9, Liver DNA (NHP) [2, 7]: 0.189 fold | Fold Enrichment relative to AAV9, Liver RNA (NHP) [2, 8]: 0.021 fold | Fold Enrichment relative to AAV9, Muscle (NHP) [2, 9]: 0.012 fold

KTEHVSGSPHSKAQNQQT
Fold Enrichment relative to AAV9, Brain (Mouse) ([1]; mouse brain): 71.410 fold | Fold Enrichment relative to AAV9, Brain (NHP) [2, 10]: 58.228 fold | Fold Enrichment relative to AAV9, DRG (NHP) ([2]; NHP DRG): 0.000 fold | Fold Enrichment relative to AAV9, Heart (NHP) ([2]; NHP heart): 0.024 fold | Fold Enrichment relative to AAV9, Liver DNA (NHP) ([2]; NHP liver, DNA): 0.141 fold | Fold Enrichment relative to AAV9, Liver RNA (NHP) ([2]; NHP liver, RNA): 0.433 fold | Fold Enrichment relative to AAV9, Muscle (NHP) ([2]; NHP muscle): 0.000 fold

KTEITSGSPHSKAQNQQT
Fold Enrichment relative to AAV9, Brain (Mouse) [1, 3]: 76.686 fold | Fold Enrichment relative to AAV9, Brain (Mouse) [1, 11]: 76.686 fold | Fold Enrichment relative to AAV9, Brain (NHP) [2, 12]: 79.620 fold | Fold Enrichment relative to AAV9, DRG (NHP) [2, 4]: 0.000 fold | Fold Enrichment relative to AAV9, DRG (NHP) ([2]; NGS fold-enrichment, NHP DRG): 0.000 fold | Fold Enrichment relative to AAV9, Heart (NHP) ([2]; NGS fold-enrichment, NHP heart): 0.163 fold | Fold Enrichment relative to AAV9, Liver DNA (NHP) [2, 13]: 0.074 fold | Fold Enrichment relative to AAV9, Liver RNA (NHP) [2, 14]: 0.332 fold | Fold Enrichment relative to AAV9, Muscle (NHP) [2, 15]: 0.000 fold | Fold Enrichment relative to AAV9, Brain (NHP) [2, 5]: 79.620 fold | Fold Enrichment relative to AAV9, Heart (NHP) [2, 6]: 0.163 fold | Fold Enrichment relative to AAV9, Liver DNA (NHP) [2, 7]: 0.074 fold | Fold Enrichment relative to AAV9, Liver RNA (NHP) [2, 8]: 0.332 fold | Fold Enrichment relative to AAV9, Muscle (NHP) [2, 9]: 0.000 fold

KTEKASGSPHSKAQNQQT
Fold Enrichment relative to AAV9, Brain (Mouse) [1, 3]: 90.390 fold | Fold Enrichment relative to AAV9, Brain (Mouse) [1, 11]: 90.390 fold | Fold Enrichment relative to AAV9, Brain (NHP) [2, 12]: 80.285 fold | Fold Enrichment relative to AAV9, DRG (NHP) [2, 4]: 0.000 fold | Fold Enrichment relative to AAV9, DRG (NHP) ([2]; NGS fold-enrichment, NHP DRG): 0.000 fold | Fold Enrichment relative to AAV9, Heart (NHP) ([2]; NGS fold-enrichment, NHP heart): 0.041 fold | Fold Enrichment relative to AAV9, Liver DNA (NHP) [2, 13]: 0.261 fold | Fold Enrichment relative to AAV9, Liver RNA (NHP) [2, 14]: 0.000 fold | Fold Enrichment relative to AAV9, Muscle (NHP) [2, 15]: 0.000 fold | Fold Enrichment relative to AAV9, Brain (NHP) [2, 5]: 80.285 fold | Fold Enrichment relative to AAV9, Heart (NHP) [2, 6]: 0.041 fold | Fold Enrichment relative to AAV9, Liver DNA (NHP) [2, 7]: 0.261 fold | Fold Enrichment relative to AAV9, Liver RNA (NHP) [2, 8]: 0.000 fold | Fold Enrichment relative to AAV9, Muscle (NHP) [2, 9]: 0.000 fold

KTEKGSGSPHSKAQNQQT
Fold Enrichment relative to AAV9, Brain (Mouse) [1, 3]: 84.653 fold | Fold Enrichment relative to AAV9, Brain (Mouse) [1, 11]: 84.653 fold | Fold Enrichment relative to AAV9, Brain (NHP) [2, 12]: 105.614 fold | Fold Enrichment relative to AAV9, DRG (NHP) [2, 4]: 0.053 fold | Fold Enrichment relative to AAV9, DRG (NHP) ([2]; NGS fold-enrichment, NHP DRG): 0.053 fold | Fold Enrichment relative to AAV9, Heart (NHP) ([2]; NGS fold-enrichment, NHP heart): 0.031 fold | Fold Enrichment relative to AAV9, Liver DNA (NHP) [2, 13]: 0.169 fold | Fold Enrichment relative to AAV9, Liver RNA (NHP) [2, 14]: 0.586 fold | Fold Enrichment relative to AAV9, Muscle (NHP) [2, 15]: 0.000 fold | Fold Enrichment relative to AAV9, Brain (NHP) [2, 5]: 105.614 fold | Fold Enrichment relative to AAV9, Heart (NHP) [2, 6]: 0.031 fold | Fold Enrichment relative to AAV9, Liver DNA (NHP) [2, 7]: 0.169 fold | Fold Enrichment relative to AAV9, Liver RNA (NHP) [2, 8]: 0.586 fold | Fold Enrichment relative to AAV9, Muscle (NHP) [2, 9]: 0.000 fold
